For assay [1], the target named is T1, human NPY1 receptor (Homo sapiens, UniProt P25929).
T1 construct: expressed in transfected cells
T1 sequence (P25929 1-384): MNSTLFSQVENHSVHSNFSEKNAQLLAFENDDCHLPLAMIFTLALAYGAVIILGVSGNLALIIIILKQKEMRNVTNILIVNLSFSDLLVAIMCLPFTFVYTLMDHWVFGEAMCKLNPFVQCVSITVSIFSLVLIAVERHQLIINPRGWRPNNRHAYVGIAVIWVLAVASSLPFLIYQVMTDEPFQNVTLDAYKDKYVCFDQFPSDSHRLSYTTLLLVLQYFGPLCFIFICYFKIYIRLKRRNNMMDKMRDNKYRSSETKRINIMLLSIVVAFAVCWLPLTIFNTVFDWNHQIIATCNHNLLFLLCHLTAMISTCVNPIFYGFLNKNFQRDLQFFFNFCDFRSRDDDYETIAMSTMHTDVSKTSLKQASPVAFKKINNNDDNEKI
Description: Binding affinity at the human NPY1 receptor. The source says:
The design of such compounds can be optimized by determining their binding affinity at the recombinant MCH1, NPY1, NPY2, Gal1, Gal2, Gal3, and 5HT2C receptors. The methods to obtain the cDNA of the receptor, express said receptors in heterologous systems, and carry out assays to determine binding affinity are described in the following publications: human NPY1 (Larhammar et al., 1992), human NPY5 (U.S. Pat. No. 5,602,024, the disclosure of which is hereby incorporated by reference in its entirety into this application), human Gall (Habert-Ortoli et al., 1994), human Gal2 (Smith et al., 1997), human Gal3 (Smith et al., 1998), and rat 5HT2C (Julius et al., 1988). Additionally, the compounds would optimally not bind at the following receptors due to possible side effects: human H1 histamine and human H2 histamine receptors; human alpha-1A adrenergic, human alpha-1D adrenergic, human alpha-2A adrenergic, human alpha-2B adrenergic, and human alpha-2C adrenergic receptors; human dopamine D1, D2, D3, D4, and D5 receptors; the β-adrenoceptor; and the human 5HT1A, human 5HT1B, human 5HT1D, human 5HT1E, human 5HT1F, human 5HT2A, rat 5HT2C, human 5HT4, human 5HT6, and human 5HT7 receptors.

The target in assay [2] is T2, human GALR2 receptor (Homo sapiens, UniProt O43603).
T2 construct: expressed in transfected cells
T2 sequence (O43603 1-387): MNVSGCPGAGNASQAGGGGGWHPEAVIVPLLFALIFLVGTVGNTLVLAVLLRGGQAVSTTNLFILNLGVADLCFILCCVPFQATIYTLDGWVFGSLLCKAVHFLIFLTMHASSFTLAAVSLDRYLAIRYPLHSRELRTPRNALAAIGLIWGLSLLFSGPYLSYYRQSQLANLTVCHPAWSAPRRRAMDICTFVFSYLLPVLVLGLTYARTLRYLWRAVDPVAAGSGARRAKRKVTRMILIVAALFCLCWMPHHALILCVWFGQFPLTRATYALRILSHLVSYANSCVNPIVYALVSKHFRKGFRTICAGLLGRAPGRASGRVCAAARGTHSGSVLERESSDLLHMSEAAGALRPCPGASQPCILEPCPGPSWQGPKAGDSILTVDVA
Description: Binding affinity at the human GALR2 receptor.

Assay [3] deals with T3, rat 5HT2C receptor (Rattus norvegicus, UniProt P08909).
T3 construct: expressed in transfected cells
T3 sequence (P08909 33-460): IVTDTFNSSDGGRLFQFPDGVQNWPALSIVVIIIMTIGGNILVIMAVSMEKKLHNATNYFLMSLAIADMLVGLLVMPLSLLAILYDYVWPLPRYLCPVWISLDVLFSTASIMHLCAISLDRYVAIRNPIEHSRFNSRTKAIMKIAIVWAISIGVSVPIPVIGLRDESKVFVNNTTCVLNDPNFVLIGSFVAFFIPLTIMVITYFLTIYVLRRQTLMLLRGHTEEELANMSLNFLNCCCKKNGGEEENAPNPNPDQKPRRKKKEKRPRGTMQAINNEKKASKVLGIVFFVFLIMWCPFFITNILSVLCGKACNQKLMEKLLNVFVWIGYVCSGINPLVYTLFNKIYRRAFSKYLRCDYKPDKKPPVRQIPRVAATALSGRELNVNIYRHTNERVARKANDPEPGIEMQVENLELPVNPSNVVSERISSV
Description: Binding affinity at the rat 5HT2C receptor. The gist of the method:
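Radioligand binding at recombinant rat 5HT2C receptor expressed in a heterologous system, run per a published method.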

The target in assay [4] is T4, human Alpha-1a Adrenergic receptor (Homo sapiens, UniProt P35348).
T4 construct: expressed in transfected cells
T4 sequence (P35348 1-466): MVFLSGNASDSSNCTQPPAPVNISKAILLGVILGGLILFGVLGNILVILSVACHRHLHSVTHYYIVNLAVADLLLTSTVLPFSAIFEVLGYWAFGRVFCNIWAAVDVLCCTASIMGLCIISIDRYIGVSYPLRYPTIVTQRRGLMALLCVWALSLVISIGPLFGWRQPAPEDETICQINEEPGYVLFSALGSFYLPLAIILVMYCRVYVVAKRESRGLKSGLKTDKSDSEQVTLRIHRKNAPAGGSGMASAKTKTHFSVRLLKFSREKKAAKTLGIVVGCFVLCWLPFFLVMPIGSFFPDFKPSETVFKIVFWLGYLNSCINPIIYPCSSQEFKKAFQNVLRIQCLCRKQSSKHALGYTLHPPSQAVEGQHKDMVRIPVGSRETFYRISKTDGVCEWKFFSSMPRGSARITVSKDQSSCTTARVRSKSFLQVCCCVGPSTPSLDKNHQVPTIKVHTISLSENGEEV
Kind of assay: Binding affinity at the human alpha-1A adrenergic receptor. The gist of the method: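 Receptor binding read-out throughout; membranes expressing human D1 or D2 receptor were used for those two targets.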

Data on 9 compounds can be found in US20040038855A1 (priority 1999, published 2004).

Where a name gives a salt, the structure may show the parent alone. Read-outs that look alike come from different tables or passages of the source.

For the compound `COCC1=C(C(=O)OC)[C@H](c2ccc(F)c(F)c2)N(C(=O)NCCCN2CCC(c3cccc(NC(C)=O)c3)CC2)C(=O)N1` [Example 10, (+)-1,2,3,6-TETRAHYDRO-1-{N-[4-(3,-ACETAMIDO)-PHENYLPIPERIDIN-1-YL]PROPYL}CARBOXAMIDO-4-METHOXYMETHYL-6-(3,4-DIFLUORO-PHENYL)-2-OXOPYRIMIDINE-5-CARBOXYLIC ACID METHYL ESTER], the inhibitory constant (Ki) (commonly a dissociation constant, usually derived from enzyme kinetics or from competition with a known ligand) in assay [1] (Table 3a, read-out: hMPY1 Ki) is > 50 µM; in assay [1] (Table 3b, read-out: hNPY1 Ki) it was > 50 µM; in assay [2] (Table 3a, read-out: hGALR2 Ki) it was > 50 µM; in assay [2] (Table 3b, read-out: hGALR2 Ki) it was > 50 µM; in assay [3] (Table 3a, read-out: r5HT2C Ki) it was 29.6 µM; in assay [4] (Table 3d, read-out: hα1A Ki), 0.0458 µM.

As for `COCC1=C(C(=O)OC)C(c2ccc(F)c(F)c2)N(C(=O)NCCCN2CCC(c3cccc(NC(C)=O)c3)CC2)C(=O)N1` (single isomer, unassigned; (-)) [Example 1, (−)-1,2,3,6-TETRAHYDRO-1-{N-[4-(3,-ACETAMIDO)-PHENYLPIPERIDIN-1-YL]PROPYL}CARBOXAMIDO-4-METHOXYMETHYL-6-(3,4-DIFLUORO-PHENYL)-2-OXOPYRIMIDINE-5-CARBOXYLIC ACID METHYL ESTER], the Ki is > 50 µM in assay [1] (Table 3a, read-out: hMPY1 Ki); > 50 µM in assay [1] (Table 3b, read-out: hNPY1 Ki); > 50 µM in assay [2] (Table 3a, read-out: hGALR2 Ki); > 50 µM in assay [2] (Table 3b, read-out: hGALR2 Ki); > 50 µM in assay [3] (Table 3a, read-out: r5HT2C Ki); > 50 µM in assay [3] (Table 3b, read-out: r5HT2C Ki). In addition, in assay [4] (Table 3d, read-out: hα1A Ki), the Ki stood at 2.21 µM.

As to `COC(=O)C1=C(C)NC(=O)N(C(=O)NCCCN2CCC3(CC2)OCc2ccccc23)C1c1ccc2nonc2c1` (single isomer, unassigned) [Example 18, HYDROCHLORIDE], the Ki in assay [1] was > 50 µM; in assay [1] (read-out: hNPY1 Ki, Table 3b), > 50 µM; in assay [2], > 50 µM; in assay [2] (read-out: hGALR2 Ki, Table 3b), > 50 µM; in assay [3] (Table 3a, read-out: r5HT2C Ki), 32.6 µM; in assay [4] it was 0.0017 µM.

As to `CCCCN(CCCC)c1ccc(CNC[C@H]2CC[C@H](NC(=O)c3cccc4ccccc34)CC2)cc1` [Example 13, N1-[4-([4-(DIBUTYLAMINO)BENZYL]AMINOMETHYL)CYCLOHEXYL]-1-NAPHTH-AMIDE], the Ki in assay [1] (Table 3a, read-out: hMPY1 Ki) came out at 9.6 µM; in assay [1] (Table 3b, read-out: hNPY1 Ki), 9.6 µM; in assay [2] (Table 3a, read-out: hGALR2 Ki) it was 4.73 µM; in assay [2] (Table 3b, read-out: hGALR2 Ki), 4.73 µM; in assay [3] (Table 3a, read-out: r5HT2C Ki) it was 25 µM; in assay [3] (Table 3b, read-out: r5HT2C Ki), 25 µM.

On to `CCCCN(CCCC)c1ccc(CN2CCC(CNC(=O)N3C(=O)NC(C)=C(C(=O)OC)C3c3ccc4nonc4c3)CC2)cc1` (stereo not shown) [Example 6], for which the inhibitory constant (Ki) is 6.67 µM in assay [1] (Table 3a, read-out: hMPY1 Ki); 6.67 µM in assay [1] (Table 3b, read-out: hNPY1 Ki); 14.9 µM in assay [2] (Table 3a, read-out: hGALR2 Ki); 14.9 µM in assay [2] (Table 3b, read-out: hGALR2 Ki); 25.5 µM in assay [3] (Table 3a, read-out: r5HT2C Ki); 25.5 µM in assay [3] (Table 3b, read-out: r5HT2C Ki).

In the case of `O=C(CCCN1CCC(O)(c2ccc(Cl)cc2)CC1)c1ccc(Cl)cc1` [Example 29], the inhibitory constant (Ki) in assay [1] is > 50 µM; in assay [1] (read-out: hNPY1 Ki, Table 3b) it was > 50 µM; in assay [2], > 50 µM; in assay [2] (read-out: hGALR2 Ki, Table 3b), > 50 µM; in assay [3] it was > 50 µM; in assay [3] (read-out: r5HT2C Ki, Table 3b), > 50 µM.

Consider `COC(=O)C1=C(C)NC(=O)N(C(=O)NCCCN2CCC3(CC2)OCc2ccccc23)C1c1ccc(F)c(F)c1` (stereo not shown) [Example 20, 4-(3,4-DIFLUORPHENYL)-6-METHYL-2-OXO-3-{[3-(4-SPIRO[ISOBENZOFURAN-1(3H),4′-PIPERIDINE]PROPYL}-1,2,3,4-TETRAHYDROPYRIMIDINE-5-CARBOXYLIC ACID METHYL ESTER], for which the Ki was 27.1 µM in assay [1]; 27.1 µM in assay [1] (read-out: hMPY1 Ki, Table 3a); > 50 µM in assay [2]; > 50 µM in assay [2] (read-out: hGALR2 Ki, Table 3b); 15.1 µM in assay [3] (Table 3a, read-out: r5HT2C Ki); 15.1 µM in assay [3] (Table 3b, read-out: r5HT2C Ki).

“2-(3,4-DIFLUOROPHENYL)4,5-DIHYDROIMIDAZOLE-1-CARBOXYLIC ACID {3-[4-PHENYL-4-(4-BROMO-5-METHYLTHIOPNEN-2-YL)]-PROPYL}-AMIDE [Example 19]”: the Ki in assay [1] (Table 3a, read-out: hMPY1 Ki) was > 50 µM; in assay [1] (Table 3b, read-out: hNPY1 Ki), > 50 µM; in assay [2] (Table 3a, read-out: hGALR2 Ki), > 50 µM; in assay [2] (Table 3b, read-out: hGALR2 Ki), > 50 µM; in assay [3] (Table 3a, read-out: r5HT2C Ki) it was 11.7 µM; in assay [3] (Table 3b, read-out: r5HT2C Ki), 11.7 µM. The inhibitory constant (Ki) in assay [4] (Table 3d, read-out: hα1A Ki) was 0.0025 µM.

Regarding `CCC1=C(C(=O)O)C(c2ccc(F)c(F)c2)N(C(=O)NCCCN2CCC3(CC2)OCc2ccccc23)C(=O)N1` (single isomer, unassigned; (+)) [Example 4, (+)-1,2,3,6-TETRAHYDRO-1-1N-[4-(BENZO-4′,5′(H)FURAN)PIPERIDIN-1-YL]PROPYL}-CARBOXAMIDO-4-ETHYL-6-(3,4-DIFLUOROPHENYL)-2-OXO-PYRIMIDINE-5 CARBOXYLIC ACID HYDROCHLORIDE], the Ki in assay [1] (Table 3a, read-out: hMPY1 Ki) is > 50 µM; in assay [1] (Table 3b, read-out: hNPY1 Ki) it was > 50 µM; in assay [2] (Table 3a, read-out: hGALR2 Ki), > 50 µM; in assay [2] (Table 3b, read-out: hGALR2 Ki), > 50 µM; in assay [3] (Table 3a, read-out: r5HT2C Ki), 34.8 µM.
